In patent US8957051B2, “Bicyclic 1, 2, 4-oxadiazoles derivatives as sphingosine-1 phosphate receptors modulators” (Allergan, Inc., priority 2012, dated 2015):

The molecules below were run against T1, human S1P1 receptor (Homo sapiens, UniProt P21453) (assay: GTP γ35S binding assay for S1P1 activity). Settings: membranes of cells stably expressing S1P1 receptor, agonist potency.
T1 construct: expressed in transfected cells; membranes were used
Format: biochemical
Description: Compounds were synthesized and tested for S1P1 activity using the GTP γ^355 binding assay. These compounds may be assessed for their ability to activate or block activation of the human S1P1 receptor in cells stably expressing the S1P1 receptor.
GTP γ^355 binding was measured in the medium containing (mM) HEPES 25, pH 7.4, MgCl2 10, NaCl 100, dithiothreitol 0.5, digitonin 0.003%, 0.2 nM GTP γ^355, and 5 μg membrane protein in a volume of 150 μl. Test compounds were included in the concentration range from 0.08 to 5,000 nM unless indicated otherwise. Membranes were incubated with 100 μM 5′-adenylylimidodiphosphate for 30 min, and subsequently with 10 μM GDP for 10 min on ice. Drug solutions and membrane were mixed, and then reactions were initiated by adding GTP γ^355 and continued for 30 min at 25° C. Reaction mixtures were filtered over Whatman GF/B filters under vacuum, and washed three times with 3 mL of ice-cold buffer (HEPES 25, pH7.4, MgCl2 10 and NaCl 100). Filters were dried and mixed with scintillant, and counted for ^35S activity using a β-counter. Agonist-induced GTP γ^355 binding was obtained by subtracting that in the absence of agonist. Binding data were analyzed using a non-linear regression method. In case of antagonist assay, the reaction mixture contained 10 nM […] in the presence of test antagonist at concentrations ranging from 0.08 to 5000 nM.

T1 sequence (P21453 whole entry): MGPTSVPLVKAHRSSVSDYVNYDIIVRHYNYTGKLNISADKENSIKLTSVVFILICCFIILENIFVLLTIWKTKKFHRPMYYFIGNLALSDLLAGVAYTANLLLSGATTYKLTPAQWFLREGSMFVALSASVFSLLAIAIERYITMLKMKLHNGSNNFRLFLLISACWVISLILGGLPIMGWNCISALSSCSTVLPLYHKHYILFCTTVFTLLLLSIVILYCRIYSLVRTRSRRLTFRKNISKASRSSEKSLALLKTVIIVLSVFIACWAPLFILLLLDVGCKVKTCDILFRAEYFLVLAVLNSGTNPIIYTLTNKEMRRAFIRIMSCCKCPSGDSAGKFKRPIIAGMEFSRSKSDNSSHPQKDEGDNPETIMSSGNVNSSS

Structure (SMILES)	EC50 [nM]
O=P(O)(O)CCCNCc1ccc(-c2noc(CCCCc3ccccc3)n2)c2ccccc12 [Compound 4, {3-[({4-[5-(4-Phenylbutyl)-1,2,4-oxadiazol-3-yl]-1-naphthyl}methyl)amino]propyl}phosphonic acid]	24.9
O=P(O)(O)OCCNCc1ccc(-c2noc(CCCCc3ccccc3)n2)c2ccccc12 [Compound 6, 2-[({4-[5-(4-Phenylbutyl)-1,2,4-oxadiazol-3-yl]-1-naphthyl}methyl)amino]ethyl dihydrogen phosphate]	22.4

More lines, in order of falling EC50, values ahead:

EC50 [nM]	Structure (SMILES)
46.7	O=P(O)(O)CCCNCc1ccc(-c2noc(CCCCCc3ccccc3)n2)c2cccnc12 [Compound 3, {3-[({5-[5-(5-Phenylpentyl)-1,2,4-oxadiazol-3-yl]quinolin-8-yl}methyl)amino]propyl}phosphonic acid]
9.87	O=P(O)(O)CCCNCc1ccc(-c2noc(CCCc3ccccc3)n2)c2cccnc12 [Compound 2, {3-[({5-[5-(3-Phenylpropyl)-1,2,4-oxadiazol-3-yl]quinolin-8-yl}methyl)amino]propyl}phosphonic acid]
3.52	O=P(O)(O)CCCNCc1ccc(-c2noc(CCCCc3ccccc3)n2)c2cccnc12 [Compound 1, {3-[({5-[5-(4-Phenylbutyl)-1,2,4-oxadiazol-3-yl]quinolin-8-yl}methyl)amino]propyl}phosphonic acid]
